From US8466176B2 (priority 2008, dated 2013)

Test: logP(HCOOH) reported with HPLC/MS
Settings: HCOOH (formic acid), logP(HCOOH), HPLC/MS

SMILES | chromatographic logP
Cn1nnnc1C(=NOCc1csc(C#CCOCc2ccccc2)n1)c1ccccc1 [Example 263, N-({2-[3-(benzyloxy)prop-1-yn-1-yl]-1,3-thiazol-4-yl}methoxy)-1-(1-methyl-1H-tetrazol-5-yl)-1-phenylmethanimine] | 4.04
CCCCCON(C(=O)OC(C)(C)C)c1cccc(CON=C(c2ccccc2)c2nnnn2C)n1 [Example 268, tert-butyl {6-[({[(1-methyl-1H-tetrazol-5-yl)(phenyl)methylene]amino}oxy)methyl]pyridin-2-yl}(pentyloxy)carbamate] | 5.25
CCCCCCN(C=O)c1cccc(C)[n+]1[O-] [N-hexyl-N-(6-methyl-1-oxidopyridin-2-yl)formamide] | 1.82
CCCCCCN(C=O)c1cccc(C)n1 [N-hexyl-N-(6-methylpyridin-2-yl)formamide] | 3.46
CSc1cccc(C(=NO)c2nnnn2C)c1 [N-hydroxy-1-[3-(methylsulfanyl)phenyl]-1-(1-methyl-1H-tetrazol-5-yl)methanimine] | 1.98
CCCCSC(=O)Nc1cccc(CON=C(c2ccccc2)c2nnnn2C)n1 [S-butyl {6-[({[(1-methyl-1H-tetrazol-5-yl)(phenyl)methylene]amino}oxy)methyl]pyridin-2-yl}carbamothioate] | 4.25
CN(C)c1cccc(C(=O)c2nnnn2C)c1 [[3-(dimethylamino)phenyl](1-methyl-1H-tetrazol-5-yl)methanone] | 2.21
CSc1cccc(C(=O)c2nnnn2C)c1 [[3-(methylsulfanyl)phenyl](1-methyl-1H-tetrazol-5-yl)methanone] | 2.52
OCc1cccc(C2OCCO2)n1 [[6-(1,3-dioxolan-2-yl)pyridin-2-yl]methanol] | 0.54
CSc1cccc(C(=NOCc2cccc(N(CCC3CCCCC3)C(=O)OC(C)(C)C)n2)c2nnnn2C)c1 [tert-butyl (2-cyclohexylethyl)(6-{[({[3-(methylsulfanyl)phenyl](1-methyl-1H-tetrazol-5-yl)methylene}-amino)oxy]methyl}pyridin-2-yl)carbamate] | 6.83
CC(C)(C)OC(=O)N(CCC1CCCCC1)c1cccc(CBr)n1 [tert-butyl [6-(bromomethyl)pyridin-2-yl](2-cyclohexylethyl)carbamate] | 6.79

Same assay, conditions: HPLC/MS

SMILES | logP(HCOOH) | chromatographic logP
CCCCCONc1cccc(CON=C(c2ccccc2)c2nnnn2C)n1 [Example 269, 6-[({[(1-methyl-1H-tetrazol-5-yl)(phenyl)methylene]amino}oxy)methyl]-(pentyloxy)pyridin-2-amine] | 3.87 | 
COC(=O)c1nc(Br)sc1C [methyl 2-bromo-5-methyl-1,3-thiazole-4-carboxylate] |  | 1.84

Same assay, conditions: logP(HCOOH), HPLC/MS

SMILES | chromatographic logP
Cc1cccc(NC=O)n1 [N-(6-methylpyridin-2-yl)formamide] | 0.45
CON(C)C(=O)c1cccc(SC)c1 [N-methoxy-N-methyl-3-(methylsulfanyl)benzamide] | 1.89
CC(C)(C)OC(=O)N(CCC1CCCCC1)c1cccc(CO)n1 [tert-butyl (2-cyclohexylethyl)[6-(hydroxymethyl)pyridin-2-yl]carbamate] | 4.49
CC(C)(C)OC(=O)Nc1cccc(Br)n1 [tert-butyl (6-bromopyridin-2-yl)carbamate] | 4.11
CC(C)(C)OC(=O)Nc1cccc(C=O)n1 [tert-butyl (6-formylpyridin-2-yl)carbamate] | 2.44
CC(C)(C)OC(=O)Nc1cccc(CO)n1 [tert-butyl [6-(hydroxymethyl)pyridin-2-yl]carbamate] | 1.14

Same assay, conditions: method [a]: HPLC on reversed phase columns, pH 2.3 with 0.1% phosphoric acid and acetonitrile as eluent

SMILES | log p
CCCC#Cc1nc(CON=C(c2ccccc2)c2nnnn2C)cs1 [Example 261] | 3.89^[a]

Same assay, conditions: method [b]: LC-MS at pH 2.7 with 0.1% formic acid in water and acetonitrile (0.1% formic acid), linear gradient 10% to 95% acetonitrile

SMILES | log p
Cn1nnnc1C(=NOCc1csc(C#Cc2ccccc2C(F)(F)F)n1)c1ccccc1 [Example 267] | 4.51^[b]
CCCCCONc1cccc(CON=C(c2ccccc2)c2nnnn2C)n1 [Example 269, 6-[({[(1-methyl-1H-tetrazol-5-yl)(phenyl)methylene]amino}oxy)methyl]-(pentyloxy)pyridin-2-amine] | 3.87^[b]
CCCCON(C(=O)OC(C)(C)C)c1cccc(CON=C(c2ccccc2)c2nnnn2C)n1 [Example 280] | 4.75^[b]
Cn1nnnc1C(=NOCc1cccc(N(OCCc2ccccc2)C(=O)OC(C)(C)C)n1)c1ccccc1 [Example 281] | 4.89^[b]
Cn1nnnc1C(=NOCc1cccc(N(OCc2ccccc2)C(=O)OC(C)(C)C)n1)c1ccccc1 [Example 282] | 4.65^[b]
Cn1nnnc1C(=NOCc1cccc(N(OCC2CCCCC2)C(=O)OC(C)(C)C)n1)c1ccccc1 [Example 283] | 6.25[b]
Cn1nnnc1C(=NOCc1cccc(NOCC2CCCCC2)n1)c1ccccc1 [Example 284] | 4.44^[b]
Cn1nnnc1C(=NOCc1cccc(NOCc2ccccc2)n1)c1ccccc1 [Example 285] | 3.14^[b]
CCCCONc1cccc(CON=C(c2ccccc2)c2nnnn2C)n1 [Example 286] | 3.39^[b]
Cn1nnnc1C(=NOCc1cccc(NOCCc2ccccc2)n1)c1ccccc1 [Example 287] | 3.69^[b]
Cn1nnnc1C(=NOCc1cccc(NCC2CC2)n1)c1cccc(F)c1 [Example 290] | 1.98^[b]
Cn1nnnc1C(=NOCc1cccc(NCCC2CCCCC2)n1)c1cccc(F)c1 [Example 291] | 3.27^[b]
CSc1cccc(C(=NOCc2cccc(NCC3CCCCC3)n2)c2nnnn2C)c1 [Example 292] | 3.02^[b]
CCc1ccc(C#Cc2nc(CON=C(c3cccc(F)c3)c3nnnn3C)cs2)cc1 [Example 293] | 5^[b]
CCOc1ccc(C#Cc2nc(CON=C(c3cccc(F)c3)c3nnnn3C)cs2)cc1 [Example 294] | 4.62^[b]
CCCCCCNc1cccc(CON=C(c2cccc(SC)c2)c2nnnn2C)n1 [Example 296] | 2.78^[b]
CSc1cccc(C(=NOCc2cccc(NCCC3CCCCC3)n2)c2nnnn2C)c1 [Example 298] | 3.17^[b]
CSc1cccc(C(=NOCc2csc(Br)n2)c2nnnn2C)c1 [Example 299] | 3.55^[b]
Cn1nnnc1C(=NOCc1cccc(NC2CC3CCC2C3)n1)c1ccccc1 (centres unmarked) [Example 300] | 2.45^[b]
CCCCC#Cc1nc(CON=C(c2cccc(SC)c2)c2nnnn2C)cs1 [Example 301] | 4.78^[b]
CSc1cccc(C(=NOCc2csc(C#CC3CC3)n2)c2nnnn2C)c1 [Example 303] | 3.99^[b]
CSc1cccc(C(=NOCc2csc(C#CC3CCCCC3)n2)c2nnnn2C)c1 [Example 304] | 5.29^[b]
CSc1cccc(C(=NOCc2csc(NCCCc3ccccc3)n2)c2nnnn2C)c1 [Example 305] | 3.71^[b]
CC(C)CSC(=O)Nc1cccc(CON=C(c2ccccc2)c2nnnn2C)n1 [Example 308] | 4.21^[b]
Cn1nnnc1C(=NOCc1cccc(NC(=O)SC(C)(C)C)n1)c1ccccc1 [Example 309] | 4.19^[b]

Same assay, conditions: method [b]: LC-MS, pH 2.7 with 0.1% formic acid in water and acetonitrile (0.1% formic acid), linear gradient 10% to 95% acetonitrile

SMILES | log p
CCC(=O)OCC#Cc1cccc(CON=C(c2ccccc2)c2nnnn2C)n1 [Example 254] | 3.29^[b]
Cn1nnnc1C(=NOCc1cccc(C#CCOCc2ccccc2)n1)c1ccccc1 [Example 255] | 3.96^[b]
CCCOc1ccc(C#Cc2nc(CON=C(c3ccccc3)c3nnnn3C)cs2)cc1 [Example 256] | 5.03^[b]
CC(C)c1ccc(C#Cc2nc(CON=C(c3ccccc3)c3nnnn3C)cs2)cc1 [Example 257] | 5.29^[b]
CCCCOc1ccc(C#Cc2nc(CON=C(c3ccccc3)c3nnnn3C)cs2)cc1 [Example 258] | 5.44^[b]
Cn1nnnc1C(=NOCc1csc(C#Cc2cccc(C#N)c2)n1)c1ccccc1 [Example 259] | 3.76^[b]
Cn1nnnc1C(=NOCc1csc(C#Cc2ccccc2F)n1)c1ccccc1 [Example 260] | 4.15^[b]
Cn1nnnc1C(=NOCc1csc(C#Cc2ccc(F)cc2)n1)c1ccccc1 [Example 262] | 4.16^[b]
Cn1nnnc1C(=NOCc1csc(C#Cc2cccc(F)c2)n1)c1ccccc1 [Example 264] | 4.19^[b]
Cn1nnnc1C(=NOCc1csc(C#Cc2cccc(OC(F)(F)F)c2)n1)c1ccccc1 [Example 265] | 4.81^[b]
Cn1nnnc1C(=NOCc1csc(C#Cc2ccc(OC(F)(F)F)cc2)n1)c1ccccc1 [Example 266] | 4.89^[b]

Same assay, conditions: reversed phase HPLC column, pH 2.7, log p, method [b]: LC-MS at pH 2.7 with 0.1% formic acid in water and acetonitrile (0.1% formic acid), linear gradient 10% to 95% acetonitrile

SMILES | chromatographic logP
CCCCCON(C(=O)OC(C)(C)C)c1cccc(CON=C(c2ccccc2)c2nnnn2C)n1 [Example 268, tert-butyl {6-[({[(1-methyl-1H-tetrazol-5-yl)(phenyl)methylene]amino}oxy)methyl]pyridin-2-yl}(pentyloxy)carbamate] | 5.25
CCCCCCNc1nc(CON=C(c2cccc(SC)c2)c2nnnn2C)cs1 [Example 297] | 3.92
CSc1cccc(C(=NOCc2csc(C#CC3CCCC3)n2)c2nnnn2C)c1 [Example 302] | 4.86
CCCCCCNc1cccc(CON=C(c2cccc(N(C)C)c2)c2nnnn2C)n1 [Example 311] | 2.44

Same assay, conditions: reversed phase HPLC column, pH 2.7, log p, method [b]: LC-MS, pH 2.7 with 0.1% formic acid in water and acetonitrile (0.1% formic acid), linear gradient 10% to 95% acetonitrile

SMILES | chromatographic logP
Cn1nnnc1C(=NOCc1csc(C#CCOCc2ccccc2)n1)c1ccccc1 [Example 263, N-({2-[3-(benzyloxy)prop-1-yn-1-yl]-1,3-thiazol-4-yl}methoxy)-1-(1-methyl-1H-tetrazol-5-yl)-1-phenylmethanimine] | 4.04

Test: logP by HPLC on reversed phase columns, method [a], pH 2.3 with 0.1% phosphoric acid and acetonitrile
Type: physicochemical
Settings: method [a]: pH 2.3, 0.1% phosphoric acid and acetonitrile as eluent; EEC directive 79/831 Annex V.A8, reversed phase HPLC

SMILES | log p
Cn1nnnc1C(=NOCc1cccc(-c2cccc(CON=C(c3ccccc3)c3nnnn3C)n2)n1)c1ccccc1 [Example 21] | 4.36^[a]
Cn1nnnc1C(=NOCc1cccc(C#CC(C)(C)C)n1)c1ccccc1 [Example 22] | 4.19^[a]
Cn1nnnc1C(=NOCc1cccc(C#Cc2ccccc2)n1)c1ccccc1 [Example 25] | 4.04^[a]
Cn1nnnc1C(=NOCc1cccc(C#CC[Si](C)(C)C)n1)c1ccccc1 [Example 26] | 4.61^[a]
CCCC#Cc1cccc(CON=C(c2ccccc2)c2nnnn2C)n1 [Example 27] | 3.83^[a]
CC(C)[Si](C#Cc1cccc(CON=C(c2ccccc2)c2nnnn2C)n1)(C(C)C)C(C)C [Example 28] | 6.83^[a]
Cn1nnnc1C(=NOCc1cccc(C#CC2CCCC2)n1)c1ccccc1 [Example 29] | 4.34^[a]
